According to patent US20220324835A1 (Nurix Therapeutics, Inc., priority 2018, published 2022):

What was measured:
T-cell [1] = assay: CD25 cell surface staining on T-cells stimulated with anti-CD3 antibody alone (Biological Example 2); assay type: cell-based; settings: 1 μM compound, primary human total T-cells, baseline = anti-CD3/anti-CD28 stimulated cells without inhibitor, read-out: CD25 staining, Anti-CD3 stimulation, fold change over baseline
T-cell [2] = assay: IL-2 secretion from T-cells co-stimulated with anti-CD3 and anti-CD28 antibody (Biological Example 2); assay type: cell-based, human; settings: Homo sapiens, T-cell, primary human total T-cells, baseline = anti-CD3/anti-CD28 stimulated cells without inhibitor, read-out: IL-2 secretion, Anti-CD3/Anti-CD28 stimulation, fold change over baseline; for fold induction at 0.3 µM: 0.3 μM compound; for fold induction at 1 µM: 1 μM compound
Method in brief: (§1)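 Values are fold-change over baseline: readings (IL-2 release, CD25 staining) from inhibitor-treated T-cells divided against untreated cells […]. No detailed procedure stated.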

T-cell [3] = assay: CD25 cell surface staining on T-cells co-stimulated with anti-CD3 and anti-CD28 antibody (Biological Example 2); assay type: cell-based, human; settings: Homo sapiens, T-cell, primary human total T-cells, baseline = anti-CD3/anti-CD28 stimulated cells without inhibitor, read-out: CD25 staining, Anti-CD3/Anti-CD28 stimulation, fold change over baseline; for fold induction at 0.3 µM: 0.3 μM compound; for fold induction at 1 µM: 1 μM compound
Method in brief: as §1

Cbl-b [4] = molecular target: T1, Cbl-b (Homo sapiens, UniProt Q13191); assay: Cbl-b activity assay (Cbl-b inhibition assay), TR-FRET of Cbl-b interaction with UbcH5B-Ub; assay type: biochemical; settings: assay buffer with 100 mM NaCl, 60 nM Src kinase; read-out: Cbl-b activity IC50
T1 sequence (Q13191 36-427): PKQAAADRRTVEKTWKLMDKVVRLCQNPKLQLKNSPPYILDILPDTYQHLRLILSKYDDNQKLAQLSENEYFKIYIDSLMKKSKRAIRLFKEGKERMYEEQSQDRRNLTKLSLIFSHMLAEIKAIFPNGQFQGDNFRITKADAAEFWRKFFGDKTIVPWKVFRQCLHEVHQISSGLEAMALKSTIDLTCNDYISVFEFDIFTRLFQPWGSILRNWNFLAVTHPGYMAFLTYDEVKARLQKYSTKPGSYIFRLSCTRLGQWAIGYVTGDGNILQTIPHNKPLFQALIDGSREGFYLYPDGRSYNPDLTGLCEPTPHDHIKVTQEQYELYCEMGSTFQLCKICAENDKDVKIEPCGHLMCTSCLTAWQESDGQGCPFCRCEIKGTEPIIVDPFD
Method in brief: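 Compound-treated Cbl-b was incubated 1.5 h with Src kinase (60 nM final; 30 nM for asterisked values, which also used 50 mM instead of 100 mM NaCl), 1 mM ATP and 5 mM MgCl2. Binding to fluorescent Ub-loaded UbcH5B (C85K mutant) was then read by TR-FRET after 1 h more.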

T-cell [5] = assay: IL-2 secretion from T-cells stimulated with anti-CD3 antibody alone (Biological Example 2); assay type: cell-based; settings: 1 μM compound, primary human total T-cells, read-out: IL-2 secretion, Anti-CD3 stimulation, fold change over baseline
Cbl-b [6] = molecular target: T1, Cbl-b; assay: Cbl-b inhibition assay (Cbl-b activity assay, FRET, Biological Example 1; 100 mM NaCl, 60 nM Src kinase); assay type: biochemical; settings: upper bound stated in text lists; read-out: IC50 values in the Cbl-b inhibition assay of Biological Example 1
Method in brief: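 TR-FRET assay using N-terminal biotinylated Avi-tagged Cbl-b bound to streptavidin-terbium, Src kinase for Cbl-b phosphorylation, and UbcH5B irreversibly conjugated to Bodipy-Fluorescein-ubiquitin. Phosphorylated Cbl-b binds UbcH5B-Ub, bringing the fluorophores together; inhibition is read as loss of FRET signal.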

Structure (SMILES)	fold induction at 1 µM (T-cell [1])	fold induction at 0.3 µM (T-cell [2])	fold induction at 1 µM (T-cell [2])	fold induction at 0.3 µM (T-cell [3])	fold induction at 1 µM (T-cell [3])	IC50 (Cbl-b [4]) [nM]	fold induction at 1 µM (T-cell [5])	IC50 (Cbl-b [6]) [nM]
Cn1cnnc1CC1(c2cccc(N3Cc4c(cc(CN5CCCC6CC65)cc4C(F)(F)F)C3=O)c2)COC1 (stereo not drawn) [Compound 490, 6-((2-azabicyclo[4.1.0]heptan-2-yl)methyl)-2-(3-(3-((4-methyl-4H-1,2,4-triazol-3-yl)methyl)oxetan-3-yl)phenyl)-4-(trifluoromethyl)isoindolin-1-one]	> 1	> 7.5	> 7.5	1.01 to 1.3	1.01 to 1.3	< 100	> 0.201	≤ 100
Cn1cnnc1CC1(c2cccc(N3Cc4c(cc(CN5CC6CC6(C)C5)cc4C(F)(F)F)C3=O)c2)COC1 (stereo not drawn) [Compound 491, 6-((1-methyl-3-azabicyclo[3.1.0]hexan-3-yl)methyl)-2-(3-(3-((4-methyl-4H-1,2,4-triazol-3-yl)methyl)oxetan-3-yl)phenyl)-4-(trifluoromethyl)isoindolin-1-one]	> 1	> 7.5	> 7.5	1.01 to 1.3	1.01 to 1.3	< 100	> 0.201	≤ 100
Cn1cnnc1CC1(c2cccc(NC(=O)c3csc(C(F)(F)F)n3)c2)COC1 [Compound 492, N-(3-{3-[(4-methyl-1,2,4-triazol-3-yl)methyl]oxetan-3-yl}phenyl)-2-(trifluoromethyl)-1,3-thiazole-4-carboxamide]	0.601 to 0.8	1.01 to 2.5	1.01 to 2.5	1.01 to 1.3	1.01 to 1.3	< 100	0.051 to 0.1	≤ 100
Cn1cnnc1CC1(c2cccc(NC(=O)c3nc(C4CC4)cs3)c2)COC1 [Compound 493, 4-cyclopropyl-N-(3-{3-[(4-methyl-1,2,4-triazol-3-yl)methyl]oxetan-3-yl}phenyl)-1,3-thiazole-2-carboxamide]	< 0.6	< 1	1.01 to 2.5	1.01 to 1.3	1.01 to 1.3	301 to 1000	< 0.05	≤ 1000
Cn1cnnc1CC1(c2cccc(NC(=O)c3csc(C4CC4)n3)c2)COC1 [Compound 494, 2-cyclopropyl-N-(3-{3-[(4-methyl-1,2,4-triazol-3-yl)methyl]oxetan-3-yl}phenyl)-1,3-thiazole-4-carboxamide]	0.601 to 0.8	1.01 to 2.5	1.01 to 2.5	1.01 to 1.3	1.01 to 1.3	100 to 300	0.051 to 0.1	≤ 300
Cn1cnnc1CC1(c2cccc(NC(=O)c3cc(CN4CCC5CC54)cc(C4CC4)n3)c2)COC1 (stereo not drawn) [Compound 497, 4-{2-azabicyclo[3.1.0]hexan-2-ylmethyl}-6-cyclopropyl-N-(3-{3-[(4-methyl-1,2,4-triazol-3-yl)methyl]oxetan-3-yl}phenyl)pyridine-2-carboxamide]	> 1	> 7.5	> 7.5	1.31 to 1.5	1.31 to 1.5	< 100	> 0.201	≤ 100
Cn1cnnc1CC1(c2cccc(NC(=O)c3cc(CN4C[C@H]5C[C@H]5C4)cc(C4CC4)n3)c2)COC1 [Compound 498, 4-{3-azabicyclo[3.1.0]hexan-3-ylmethyl}-6-cyclopropyl-N-(3-{3-[(4-methyl-1,2,4-triazol-3-yl)methyl]oxetan-3-yl}phenyl)pyridine-2-carboxamide]	> 1	> 7.5	> 7.5	1.31 to 1.5	1.31 to 1.5	< 100	> 0.201	≤ 100
Cn1cnnc1CC1(c2cccc(NC(=O)c3cc(CN4C[C@@H]5[C@H](C4)C5(F)F)cc(C4CC4)n3)c2)COC1 [Compound 499]	> 1	> 7.5	> 7.5	1.31 to 1.5	1.31 to 1.5	< 100	> 0.201	≤ 100
Cc1conc1CC1(c2cccc(NC(=O)c3cc(CN4CCC5(CC5)C4)cc(C4CC4)n3)c2)COC1 [Compound 500, 4-{5-azaspiro[2.4]heptan-5-ylmethyl}-6-cyclopropyl-N-(3-{3-[(4-methyl-1,2-oxazol-3-yl)methyl]oxetan-3-yl}phenyl)pyridine-2-carboxamide]	> 1	> 7.5	> 7.5	1.31 to 1.5	1.31 to 1.5	< 100	> 0.201	≤ 100
Cn1cnnc1CC1(c2cccc(NC(=O)c3cc(OC(F)F)cc(C4CC4)n3)c2)COC1 [Compound 502, 6-cyclopropyl-4-(difluoromethoxy)-N-(3-{3-[(4-methyl-1,2,4-triazol-3-yl)methyl]oxetan-3-yl}phenyl)pyridine-2-carboxamide]	> 1	5 to 7.5	> 7.5	1.01 to 1.3	1.01 to 1.3	< 100	> 0.201	≤ 100
CN(C)Cc1cc(C(=O)Nc2cccc(C3(Cc4nncn4C)COC3)c2)nc(C2CC2)n1 [Compound 503, 2-cyclopropyl-6-[(dimethylamino)methyl]-N-(3-{3-[(4-methyl-1,2,4-triazol-3-yl)methyl]oxetan-3-yl}phenyl)pyrimidine-4-carboxamide]	> 1	2.51 to 5	> 7.5	1.31 to 1.5	1.31 to 1.5	< 100	0.101 to 0.15	≤ 100
Cn1cnnc1CC1(c2cccc(NC(=O)c3cc(CN4CCC4)nc(C4CC4)n3)c2)COC1 [Compound 504, 6-(azetidin-1-ylmethyl)-2-cyclopropyl-N-(3-{3-[(4-methyl-1,2,4-triazol-3-yl)methyl]oxetan-3-yl}phenyl)pyrimidine-4-carboxamide]	0.801 to 1	2.51 to 5	5 to 7.5	1.01 to 1.3	1.31 to 1.5	< 100	0.051 to 0.1	≤ 100
Cn1cnnc1CC1(c2cccc(NC(=O)c3cc(CN4CC[C@H](O)C4)nc(C4CC4)n3)c2)COC1 [Compound 505, 2-cyclopropyl-6-{[(3S)-3-hydroxypyrrolidin-1-yl]methyl}-N-(3-{3-[(4-methyl-1,2,4-triazol-3-yl)methyl]oxetan-3-yl}phenyl)pyrimidine-4-carboxamide]	0.601 to 0.8	1.01 to 2.5	2.51 to 5	1.01 to 1.3	1.01 to 1.3	< 100	0.051 to 0.1	≤ 100
Cc1conc1CC1(c2cccc(NC(=O)c3cc(CN4CC[C@H](O)C4)nc(C4CC4)n3)c2)COC1 [Compound 507, 2-cyclopropyl-6-{[(3S)-3-hydroxypyrrolidin-1-yl]methyl}-N-(3-{3-[(4-methyl-1,2-oxazol-3-yl)methyl]oxetan-3-yl}phenyl)pyrimidine-4-carboxamide]	> 1	> 7.5	> 7.5	1.31 to 1.5	1.31 to 1.5	< 100	> 0.201	≤ 100
Cc1conc1CC1(c2cccc(NC(=O)c3cc(CN4CCC5(CC5)C4)nc(C4CC4)n3)c2)COC1 [Compound 508, 6-{5-azaspiro[2.4]heptan-5-ylmethyl}-2-cyclopropyl-N-(3-{3-[(4-methyl-1,2-oxazol-3-yl)methyl]oxetan-3-yl}phenyl)pyrimidine-4-carboxamide]	> 1	> 7.5	> 7.5	1.31 to 1.5	1.31 to 1.5	< 100	> 0.201	≤ 100
